Consider one compound from paper PMC4315410, “A New PAMPA Model Proposed on the Basis of a Synthetic Phospholipid Membrane” (PLoS ONE, 2015).

Series [1] can be described thus: PAMPA with synthetic phospholipid membrane, octyl chain (C8). Type of series: in vitro ADME. To be noted: PAMPA, read-out: P e.
Protocol: (§1) In PAMPA, a “sandwich” structure was formed by a 96-well microtiter plate and a 96-well filter plate from Millipore (IPVH, 125 μm thick filter, 0.45 μm pore), then wetted with a 4 μl 2% w/v phospholipid compound solution in n-dodecane [27].
(§2) The stock solutions of the drug samples were prepared at 10 mM concentrations in DMSO and stored at 0°C before use. Before being added to a 96-well filter plate, the stock solution was diluted first with buffer to achieve a final sample concentration of 10∼50 μM and to reduce the DMSO concentration below 1% (v/v).
(§3) The PAMPA plate was filled with a 300 μl diluted drug solution to prepare the “donor” wells, and the 96-well filter plate containing a synthetic phospholipid membrane was then placed on the donor wells. The “acceptor” wells were filled with 200 μl of buffer solution and placed on top of the “sandwich”, and the PAMPA instruments were incubated at 25°C in a sealed and saturated humidity container for a specified time. After reaching the permeation time, the PAMPA plate sandwich was separated, and the amount of drugs in both the donor and acceptor compartments were measured by comparing the experimental spectra with the UV spectrum (220∼400 nm) obtained from reference standards.
(§4) The factor S was the fraction of samples remaining in the donor and the acceptor wells at time t.
(§5) In the incubation time assays, the pH was 7.4 in both the donor and acceptor wells. In the pH-gradient assays, the pH of the drug solutions was varied using NaOH-treated universal buffer (pION Inc.) in the donor wells, and the pH in the acceptor solution was pH 7.4 [15]. In addition, the incubation time in the pH-gradient test assays was 16 h.
Series [2] can be described thus: PAMPA with synthetic phospholipid membrane, decyl chain (C10). To be noted: for Papp at 16 h: PAMPA, read-out: P e. Type of series: in vitro ADME.
Protocol: as §1, §2, §3, §4, §5
A short description of series [3]: PAMPA with synthetic phospholipid membrane, lauryl chain (C12). Type of series: in vitro ADME. The note with it: for Papp at 16 h: PAMPA, read-out: P e.
Protocol: as §1, §2, §3, §4, §5
Details of series [4]: method as in DrugBank database. To be noted: ref DrugBank database; cited from earlier work.
On the set-up of series [5]: method as in Chinese Pharmacopoeia, 2005 edition and references 15, 27, 38. To be noted: ref Chinese Pharmacopoeia, 2005 edition and references 15, 27, 38; cited from earlier work.
Details of series [6]: method as in PMID 11576780, PMID 9691477. To be noted: cited from earlier work.

Turning to `NC(N)=Nc1nc(CSCCC(N)=NS(N)(=O)=O)cs1` [Famotidine], the Papp at 16 h in series [1] (C8, donor pH 4.6, acceptor pH 7.4, 16 h) is 1.1 ×10⁻⁶ cm/s; in series [1] (C8, donor pH 4.98, acceptor pH 7.4, 16 h) it was 2.2 ×10⁻⁶ cm/s; in series [1] (C8, donor pH 6.57, acceptor pH 7.4, 16 h), 5 ×10⁻⁶ cm/s; in series [1] (C8, donor pH 9.32, acceptor pH 7.4, 16 h) it was 5.1 ×10⁻⁶ cm/s; in series [1] (pH 7.4, C8 membrane, incubation time 16 h, pH 7.4 donor and acceptor, 25°C) it was 2.7 ± 0.3 ×10⁻⁶ cm/s; in series [2] (C10, donor pH 4.6, acceptor pH 7.4, 16 h), 1.2 ×10⁻⁶ cm/s. For the same compound, the Papp at 16 h in series [2] (C10, donor pH 6.57, acceptor pH 7.4, 16 h) was found to be 5.7 ×10⁻⁶ cm/s; in series [2] (C10, donor pH 9.32, acceptor pH 7.4, 16 h), 5.5 ×10⁻⁶ cm/s; in series [2] (pH 7.4, C10 membrane, incubation time 16 h, pH 7.4 donor and acceptor, 25°C) it was 2.8 ± 0.2 ×10⁻⁶ cm/s; in series [3] (C12, donor pH 6.57, acceptor pH 7.4, 16 h) it was 6 ×10⁻⁶ cm/s; in series [3] (C12, donor pH 9.32, acceptor pH 7.4, 16 h), 6.1 ×10⁻⁶ cm/s; in series [3] (pH 7.4, C12 membrane, incubation time 16 h, pH 7.4 donor and acceptor, 25°C) it was 3.2 ± 0.4 ×10⁻⁶ cm/s. Also, the P e in series [2] (C10, donor pH 4.98, acceptor pH 7.4, 16 h) is recorded as 2.2 ×10^–6 cm/s; in series [3] (C12, donor pH 4.6, acceptor pH 7.4, 16 h), 1.2 ×10^–6 cm/s; in series [3] (C12, donor pH 4.98, acceptor pH 7.4, 16 h), 1.2 ×10^–6 cm/s. Moreover, in series [4], the Water solubility is 1000 mg. In addition, in series [5], the “pKa (first value listed)” value is 7.24. In series [5], the “pKa (second value listed)” value was 11.19. In addition, the “%FA (human fraction absorbed)” value in series [6] is 40%.
